16 compounds from patent US4897409A, “5-aminoethyloxazolidin-2-one derivatives” (Delalande S.A., priority 1986, dated 1990) can be followed below.

Assay [1] has as its target T1, MAO-B of the brain of a rat (Rattus norvegicus, UniProt P19643).
T1 construct: total rat brain homogenate, with 1 g of tissue/16 ml of phosphate buffer; from tissue; host or cells: rat brain, total homogenate
T1 sequence (P19643 1-520): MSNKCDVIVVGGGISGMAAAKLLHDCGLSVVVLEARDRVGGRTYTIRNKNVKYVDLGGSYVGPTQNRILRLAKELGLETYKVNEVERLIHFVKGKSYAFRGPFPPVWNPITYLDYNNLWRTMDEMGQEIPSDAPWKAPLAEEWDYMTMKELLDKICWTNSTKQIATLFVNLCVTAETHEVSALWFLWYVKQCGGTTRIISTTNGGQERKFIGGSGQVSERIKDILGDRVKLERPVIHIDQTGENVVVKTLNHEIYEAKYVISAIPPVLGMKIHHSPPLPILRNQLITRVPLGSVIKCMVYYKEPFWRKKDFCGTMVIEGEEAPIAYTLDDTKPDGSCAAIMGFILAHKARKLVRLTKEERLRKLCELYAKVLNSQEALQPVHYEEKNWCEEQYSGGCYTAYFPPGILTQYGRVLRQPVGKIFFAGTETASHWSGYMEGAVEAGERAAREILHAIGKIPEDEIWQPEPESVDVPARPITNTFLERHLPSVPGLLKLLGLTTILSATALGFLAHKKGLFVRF
Briefly: in vitro inhibition of MAO-B, total rat brain homogenate. Type of assay: biochemical. Particulars: preincubation of 60'; for ratio IC 50 (A) / IC 50 (B) (head is drawing 22): selectivity MAO-B over MAO-A, 60 min; for IC50: total rat brain homogenate, 1 g of tissue/16 ml phosphate buffer pH 7.4, substrate [14C]phenylethylamine 12 μM, read-out: IC 50 (B), MAO-B. As to the method: (§1) This activity has been given prominence by the implementation of the protocol described by P. DOSTERT et al. in J. Pharm. Parmacol., 1983, 35, 161-165; this protocol is based on enzymatic tests carried out with or without preincubation in particular for 60 minutes and it allows measurement in vitro of the inhibiting effect with regard to the MAO-A and the MAO-B of the brain of a rat.
(§2) In Table 4 below are shown the inhibiting concentrations 50 (IC 50) for the A and B forms of MAO, obtained for a number of compounds (I) according to the invention following the above protocol applied to a total rat brain homogenate, with 1 g of tissue/16 ml of phosphate buffer of pH 7.4.
(§3) Substrate concentrations: [^14 C]5hydroxytryptamine = 480 μM,
(§4) [^14 C]phenylethylamine = 12 μM for the study of the inhibition o

The target in assay [2] is T2, MAO-A of the brain of a rat (Rattus norvegicus, UniProt P21396).
T2 construct: total rat brain homogenate, with 1 g of tissue/16 ml of phosphate buffer; from tissue; host or cells: rat brain, total homogenate
T2 sequence (P21396 1-526): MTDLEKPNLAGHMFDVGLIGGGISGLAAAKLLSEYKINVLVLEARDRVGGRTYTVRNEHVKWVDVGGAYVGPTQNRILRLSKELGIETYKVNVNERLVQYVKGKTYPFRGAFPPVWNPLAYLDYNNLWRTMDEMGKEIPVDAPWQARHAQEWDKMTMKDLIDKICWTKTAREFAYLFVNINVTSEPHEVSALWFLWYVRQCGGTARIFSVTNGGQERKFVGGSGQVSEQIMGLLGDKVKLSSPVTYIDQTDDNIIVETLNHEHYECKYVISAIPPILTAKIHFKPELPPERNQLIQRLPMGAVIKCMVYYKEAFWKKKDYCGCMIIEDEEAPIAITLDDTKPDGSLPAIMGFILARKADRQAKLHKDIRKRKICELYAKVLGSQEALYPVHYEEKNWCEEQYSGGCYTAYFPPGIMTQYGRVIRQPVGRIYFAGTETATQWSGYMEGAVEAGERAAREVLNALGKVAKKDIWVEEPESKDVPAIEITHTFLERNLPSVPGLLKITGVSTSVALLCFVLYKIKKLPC
Briefly: in vitro inhibition of MAO-A, total rat brain homogenate. It is filed as biochemical. The following applies: preincubation of 60', 1 g of tissue/16 ml phosphate buffer pH 7.4, substrate [14C]5-hydroxytryptamine 480 μM, read-out: IC 50 (A), MAO-A. As for the experimental part:
as §1, §2, §3, §4

As to `C[C@@H]([C@H]1CN(c2ccc(OCc3cccc(Cl)c3)cc2)C(=O)O1)N(C)C` (relative stereo) [compound 340742], the “ratio IC 50 (A) / IC 50 (B) (head is drawing 22)” value (from here on “ratio IC 50 (A) / IC 50 (B)”) in assay [1] was over 6250. Also, the IC50 was 0.16 µM in assay [1] and over 1000 µM in assay [2].

Consider `COc1cccc(COc2ccc(N3C[C@H]([C@H](C)N(C)C)OC3=O)cc2)c1` (relative stereo) [compound 340743], for which, in assay [1], the “ratio IC 50 (A) / IC 50 (B)” value is on record as 2500 and the IC50 was 0.4 µM. In addition, the IC50 in assay [2] was 1000 µM.

Regarding `CN[C@@H](C)[C@H]1CN(c2ccc(OCc3cccc(Cl)c3)cc2)C(=O)O1` (relative stereo) [compound 340745], in assay [1], the “ratio IC 50 (A) / IC 50 (B)” value was found to be 300 and the IC50 was 0.05 µM. Moreover, the IC50 in assay [2] was 15 µM.

Regarding `C[C@H]([C@H]1CN(c2ccc(OCc3cccc(Cl)c3)cc2)C(=O)O1)N(C)C` (relative stereo) [compound 340748], in assay [1], the “ratio IC 50 (A) / IC 50 (B)” value is listed as over 15 and the IC50 came to 20 µM. In addition, in assay [2], the IC50 stood at 300 µM.

As for `COc1cccc(COc2ccc(N3C[C@H]([C@@H](C)N(C)C)OC3=O)cc2)c1` (relative stereo) [compound 340749], in assay [1], the “ratio IC 50 (A) / IC 50 (B)” value was over 10. Moreover, the IC50 in assay [1] is 300 µM; in assay [2], over 30 µM.

Consider `C[C@H](N)[C@H]1CN(c2ccc(OCc3cccc(Cl)c3)cc2)C(=O)O1` (relative stereo) [compound 340750], for which, in assay [1], the “ratio IC 50 (A) / IC 50 (B)” value worked out at 553 and the IC50 amounted to 0.38 µM. Moreover, the IC50 in assay [2] was 210 µM.

Take `C[C@@H]([C@H]1CN(c2ccc(OCc3cccc(Cl)c3)cc2)C(=O)O1)N(C)C` [compound 200562, erythro stereoisomer (-) (R, S) of 3-[4-(3-chlorobenzyloxy)phenyl] 5-(1-dimethylaminoethyl) oxazolidin-2-one]: in assay [1], the “ratio IC 50 (A) / IC 50 (B)” value is over 1887 and the IC50 was found to be 0.053 µM. Also, the IC50 in assay [2] is over 100 µM.

Regarding `CN[C@H](C)[C@@H]1CN(c2ccc(OCc3cccc(Cl)c3)cc2)C(=O)O1` [compound 340179], in assay [1], the “ratio IC 50 (A) / IC 50 (B)” value turned out to be 16 and the IC50 was 1.16 µM. The IC50 in assay [2] was determined as 18.3 µM.

With `CN[C@@H](C)[C@H]1CN(c2ccc(OCc3cccc(Cl)c3)cc2)C(=O)O1` [compound 340271], in assay [1], the “ratio IC 50 (A) / IC 50 (B)” value is 95 and the IC50 is 0.078 µM. Further, in assay [2], the IC50 came to 7.43 µM.

Take `CN[C@H](C)[C@H]1CN(c2ccc(OCc3cccc(Cl)c3)cc2)C(=O)O1` [compound 340276]: in assay [1], the “ratio IC 50 (A) / IC 50 (B)” value was found to be 110 and the IC50 stood at 1.35 µM. In assay [2], the IC50 was 148 µM.

As for `C[C@@H](N)[C@H]1CN(c2ccc(OCc3cccc(Cl)c3)cc2)C(=O)O1` [compound 340321], in assay [1], the “ratio IC 50 (A) / IC 50 (B)” value is reported as over 19 and the IC50 is 5.34 µM. For the same compound, the IC50 in assay [2] is over 100 µM.

For the compound `CN[C@@H](C)[C@@H]1CN(c2ccc(OCc3cccc(Cl)c3)cc2)C(=O)O1` [compound 340333], in assay [1], the “ratio IC 50 (A) / IC 50 (B)” value is over 78. The IC50 in assay [1] is 1.28 µM; in assay [2] it was over 100 µM.

With `C[C@H](N)[C@@H]1CN(c2ccc(OCc3cccc(Cl)c3)cc2)C(=O)O1` [compound 340366], in assay [1], the “ratio IC 50 (A) / IC 50 (B)” value is listed as over 61 and the IC50 is 1.64 µM. Moreover, the IC50 in assay [2] is over 100 µM.

On to `COc1cccc(COc2ccc(N3C[C@H]([C@H](C)N(C)C)OC3=O)cc2)c1` [compound 340744], for which, in assay [1], the “ratio IC 50 (A) / IC 50 (B)” value is reported as over 4000 and the IC50 came to 0.25 µM. Further, the IC50 in assay [2] is over 1000 µM.

`C[C@H]([C@@H]1CN(c2ccc(OCc3cccc(Cl)c3)cc2)C(=O)O1)N(C)C` [compound 340746]: in assay [1], the “ratio IC 50 (A) / IC 50 (B)” value is over 625 and the IC50 was found to be 1.6 µM. The IC50 in assay [2] is over 1000 µM.

`COc1cccc(COc2ccc(N3C[C@@H]([C@@H](C)N(C)C)OC3=O)cc2)c1` [compound 340747]: in assay [1], the “ratio IC 50 (A) / IC 50 (B)” value is reported as over 67 and the IC50 is 15 µM. Besides, the IC50 in assay [2] is over 1000 µM.
